Test results: patent US9796711B2, “Substituted pyrazolo[3,4-b]pyridin-6-carboxylic acids and method of use” (AbbVie S.àr.l., priority 2015, dated 2017)
pEC50: −log10 of the molar value.

Assays:
ΔF508-CFTR = molecular target: T1, ΔF508-CFTR (Homo sapiens, UniProt P13569, DEL508-508); assay: CFTR cell surface levels using HRP-tagged ΔF508-CFTR expressing CFBE cells, in the presence of a co-corrector; type: cell-based; conditions: HRP-tagged ΔF508-CFTR expressing CFBE cells, in the presence of 3 μM co-corrector; for pEC50: read-out: EC50
T1 construct: host or cells: CFBE41o-, doxycycline-inducible
Summary of the method: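 Cells were seeded with 0.5 μg/mL doxycycline and held 68 h at 37 °C. Test compounds plus 3 μM co-corrector (final 0.1% DMSO) were then added for 20 h at 33 °C. Washed cells received HRP substrate, and luminescence was normalized between DMSO and 3 μM co-corrector controls.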

CFTR ΔF508 = molecular target: T2, CFTR ΔF508 (Homo sapiens, UniProt P13569, DEL508-508); assay: Chronic TECC assay on primary bronchial epithelial cells (corrector, co-corrector and potentiator); type: cell-based; conditions: chronic TECC, AUC = full area under the curve upon forskolin stimulation, with co-corrector and potentiator, 24 hours
T2 construct: bronchial epithelial cells isolated from CF patients homozygous for the CFTR ΔF508 mutation; McGill University; Asterand; University of North Carolina hAEC-CF; host or cells: primary human bronchial epithelial cells from CF patients homozygous for ΔF508
Experimental: Primary Bronchial Epithelial Cells Protocol
The TECC (Tranepithelial Clamp Circuit, EP-design) assay measures the functionality of the cystic fibrosis Transmembrane Conductance regulator (CFTR) by measuring the short circuit current (Isc) generated over the basolateral and apical membrane of lung epithelial cells. In TECC the transepithelial potential PD and transepithelial resistance (Rt)) are measured in an open circuit and transformed to Ieq using Ohm's law. 24 Wells can be measured simultaneously allowing a higher throughput compared to Ussing chambers.
For this purpose, bronchial epithelial cells isolated from CF patients homozygous for the CFTR ΔF508 mutation (hAEC-CF, Epithelix, Geneva, Switzerland; McGill University, Montreal, Qc; Asterand, Detroit, Mich.; University of North Carolina, Chapel Hill, N.C.) are plated on type IV collagen-coated Transwell® supports (Costar). Human airway epithelia are generated by provision of an air-liquid interface for 21 days to form well-differentiated polarized cultures that resemble in vivo pseudo-stratified ciliated epithelium (Fulcher, M. L., Gabriel, S., Burns, K. A., Yankaskas, J. R., Randell, S. H., 2005. Well-differentiated human airway epithelial cell cultures. Methods Mol. Med. 107, 183-206). The differentiated cells are treated with test corrector compound(s) (corrector alone or in combination with co-corrector, 4-[(2R,4R)-4-({[1-(2,2-difluoro-1,3-benzodioxol-5-yl)cyclopropyl]carbonyl}amino)-7-methoxy-3,4-dihydro-2H-chromen-2-yl]benzoic acid (G924806/A-1618261) (“acute”) or test corrector compounds, co-corrector and potentiator, N-(3-carbamoyl-5,5,7,7-tetramethyl-4,7-dihydro-5H-thieno[2,3-c]pyran-2-yl)-1H-pyrazole-5-carboxamide GLPG1837, (“chronic”) for 24 hours basolaterally to allow sufficient expression of properly folded CFTR protein on the membrane. All compound plates contained negative controls (DMSO) and positive controls (0.15 μM, 4-[(2R,4R)-4-({[1-(2,2-difluoro-1,3-benzodioxol-5-yl)cyclopropyl]carbonyl}amino)-7-(difluoromethoxy)-3,4-dihydro-2H-chromen-2-yl]benzoic acid).
For electrophysiological recording of the “chronic” experiments, the human airway epithelia are mounted in the TECC heating plate for electrophysiological measurement and kept at 37° C. The epithelia are bathed in a NaCl-Ringer solution (120 mM NaCl, 25 mM NaHCO3, 1.2 mM CaCl2, 1.2 mM MgCl2, 0.8 mM KH2PO4, 0.8 mM K2HPO4, pH 7.4, 5 mM glucose) on both the basolateral and apical sides. Test compounds (corrector, co-corrector, 4-[(2R,4R)-4-({[1-(2,2-difluoro-1,3-benzodioxol-5-yl)cyclopropyl]carbonyl}amino)-7-(difluoromethoxy)-3,4-dihydro-2H-chromen-2-yl]benzoic acid, and potentiator, N-(3-carbamoyl-5,5,7,7-tetramethyl-4,7-dihydro-5H-thieno[2,3-c]pyran-2-yl)-1H-pyrazole-5-carboxamide), are re-added to the recording solution prior to measurement. Apical amiloride is used to inhibit the endogenous ENaC currents while forskolin is applied on both apical and basolateral side to stimulate CFTR. Measurements are done during a 20 minute timeframe with recordings every 2 minutes. The increase in Ieq is used as a measure for the increased CFTR activity, EC50 values can be generated by measuring impact of different concentrations of compound on Ieq on primary cells, for this purpose each transwell is treated with a different compound concentration. Inhibitor-172, an inhibitor specific for CFTR, is used to test the specificity of the tested compounds. Raw data were normalized to percentage activity values using the equation: 100×(Sample−Negative control)/(Positive control−Negative Control).

T1 sequence (P13569 with tags, fused parts or gaps DEL508-508): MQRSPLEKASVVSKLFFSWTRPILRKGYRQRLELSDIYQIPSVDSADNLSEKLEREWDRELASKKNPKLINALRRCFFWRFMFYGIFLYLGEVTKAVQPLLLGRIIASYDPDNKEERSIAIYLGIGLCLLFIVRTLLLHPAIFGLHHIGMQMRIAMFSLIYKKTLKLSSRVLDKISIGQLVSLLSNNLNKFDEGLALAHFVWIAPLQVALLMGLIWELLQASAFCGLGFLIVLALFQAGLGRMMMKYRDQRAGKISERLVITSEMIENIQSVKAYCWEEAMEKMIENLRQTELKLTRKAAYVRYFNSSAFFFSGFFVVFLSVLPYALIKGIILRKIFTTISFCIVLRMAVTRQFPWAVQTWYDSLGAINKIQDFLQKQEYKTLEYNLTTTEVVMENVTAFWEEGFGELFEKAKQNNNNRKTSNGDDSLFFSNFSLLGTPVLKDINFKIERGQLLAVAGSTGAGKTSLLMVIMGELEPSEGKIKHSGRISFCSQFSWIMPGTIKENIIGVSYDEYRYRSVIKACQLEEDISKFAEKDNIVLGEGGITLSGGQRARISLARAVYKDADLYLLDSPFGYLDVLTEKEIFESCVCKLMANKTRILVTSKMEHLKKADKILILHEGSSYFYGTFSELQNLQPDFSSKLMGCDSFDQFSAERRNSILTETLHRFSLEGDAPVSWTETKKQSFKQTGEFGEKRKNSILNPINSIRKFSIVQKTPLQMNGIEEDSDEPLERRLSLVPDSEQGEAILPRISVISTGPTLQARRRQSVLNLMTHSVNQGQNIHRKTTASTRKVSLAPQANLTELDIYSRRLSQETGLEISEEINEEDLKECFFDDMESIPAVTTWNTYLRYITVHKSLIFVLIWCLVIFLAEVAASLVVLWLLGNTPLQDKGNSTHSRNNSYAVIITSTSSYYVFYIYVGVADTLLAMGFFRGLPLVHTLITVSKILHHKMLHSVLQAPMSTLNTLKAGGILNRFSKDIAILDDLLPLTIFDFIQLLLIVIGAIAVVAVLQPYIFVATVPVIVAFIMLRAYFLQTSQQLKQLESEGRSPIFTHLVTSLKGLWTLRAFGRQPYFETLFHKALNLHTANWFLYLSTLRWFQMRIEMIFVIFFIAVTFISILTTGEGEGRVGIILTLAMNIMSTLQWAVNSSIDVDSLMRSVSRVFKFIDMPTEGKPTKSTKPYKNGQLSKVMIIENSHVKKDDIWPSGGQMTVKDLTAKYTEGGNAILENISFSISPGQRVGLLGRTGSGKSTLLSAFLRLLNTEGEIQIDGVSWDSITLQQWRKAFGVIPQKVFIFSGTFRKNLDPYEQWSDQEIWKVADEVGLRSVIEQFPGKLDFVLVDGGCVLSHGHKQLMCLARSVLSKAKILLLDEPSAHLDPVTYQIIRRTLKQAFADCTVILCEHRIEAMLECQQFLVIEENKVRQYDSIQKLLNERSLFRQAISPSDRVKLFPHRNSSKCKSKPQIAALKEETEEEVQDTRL
T2 sequence (P13569 with tags, fused parts or gaps DEL508-508): as above

Compound	% Activation (ΔF508-CFTR)	pEC50 (ΔF508-CFTR)	EC50 (CFTR ΔF508; read-out: EC50 (nM) (AUC))	% Activity at 1 μM (AUC**) (CFTR ΔF508; 1 μM)
COCC1CCN(c2cc(C(=O)O)nc3c2c(C2CCC2)nn3-c2ccc(F)cc2)CC1 [compound 657, 3-cyclobutyl-1-(4-fluorophenyl)-4-[4-(methoxymethyl)piperidin-1-yl]-1H-pyrazolo[3,4-b]pyridine-6-carboxylic acid]	543%	6.51	78 nM	
O=C(O)c1cc(N2CCN(c3ccncc3)CC2)c2c(C3CCC3)nn(C3CCCCC3)c2n1 [compound 809, 3-cyclobutyl-1-cyclohexyl-4-[4-(pyridin-4-yl)piperazin-1-yl]-1H-pyrazolo[3,4-b]pyridine-6-carboxylic acid]	452.2%	6.74		186.6667%
